Tests used:
AML cells in bone marrow = experiment: Intra-vital 2-photon imaging of AML cell motility in bone marrow; type: in vivo, triple reporter mice; details: from 2.2 μm/min, p<0.001; i.v. administration
Source text: (§1) Intra-vital imaging was employed to investigate the effects of Compound B on AML cell motility in the bone marrow of triple reporter mice (Blood: dextran-TRITC; Host T-cells: DsRed; Host myeloid CD11 cells: EYFP) injected with AML cells carrying a turquoise fluorescent protein reporter gene. […] Individual cells were dislodged from the niche and traveled long-distance (FIG. 17C). The combined inhibition of E-selectin and CXCR4 depleted bone marrow vascular niche areas of leukemia cells.

[1] = test system: patient-derived primary AML xenograft (JAK2 and c-Kit); experiment: PDX model (mutations in JAK2 and c-Kit), LSC retention and CyTOF of BM cells; type: in vivo, mice
Source text: as §1
In order to better understand how the augmented AML mobilization improves the efficacy of AML therapy, BM cells from PDX mice treated for 2 weeks with Compound A, Compound B, venetoclax/HMA (Ven/HMA), and their combinations were analyzed by single-cell proteomics (CyTOF). […] However, pharmacological antagonists of E-selectin (Compound A) or E-selectin/CXCR4 (Compound B) protected endothelial cells from Ven/HMA-induced detrimental insults through upregulation of survival signaling cascades, including pAKT, pERK, pMAPK and […] eNOS expression in endothelial cells compared to Ven/HMA treatment alone.

[2] = test system: leukemia cells with ECs and MSCs; details: Zhang et al., 2016, cited from earlier work
leukemia cells in the BM = details: in vivo; Zhang et al., 2016; cited from earlier work
luc-MV4.11 cells = experiment: MV4.11 AML model survival; type: in vivo, NSG mice; details: 40 mg/kg Compound A i.p., 100 mg/kg venetoclax oral, 14 days once daily
Experimental: To evaluate the efficacy of targeting E-selectin with Compound A in combination with venetoclax, an in vivo MV4.11 AML model was employed (FIG. 16).
luc-MV4.11 cells (5×10^6 cells/mouse) were transplanted into NSG mice. Mice were divided into four groups: vehicle treatment only; 40 mg/kg of Compound A (intraperitoneal, 14 day once daily); 100 mg/kg venetoclax (oral, 14 days once daily), and a combination of 40 mg/kg Compound A and 100 mg/kg venetoclax. Drug treatment was initiated on day 10 post-transplantation.

[3] = in combination with Ven/HMA, 2 weeks, CyTOF of BM cells

Structure (SMILES) | AML cell motility (AML cells in bone marrow) [μm/min] | levels of E-selectin ligand, mTOR, pFAK, pRb, cMyc [1, 3] | p21 and cleaved caspase3 [1, 3] | protection of MSC ([1]; mouse, in vivo) | protection of endothelial cells from Ven/HMA-induced detrimental insults ([1]; upregulated pAKT, pERK, pMAPK, decreased eNOS vs Ven/HMA alone) | leukemia cell adhesion to ECs and MSCs [2] | BM-mediated protection of leukemic cells during FLT3-targeted therapy ([2]; in vitro) | leukemia cells in the BM (leukemia cells in the BM) | median survival time (MST) (luc-MV4.11 cells) [days]
CCC1CC(C(=O)NCCNCc2ccc(CN3CCCNCCNCCCNCC3)c(Br)c2)CC(OC2OC(CO)C(O)C(O[C@@H](CC3CCCCC3)C(=O)O)C2NC(C)=O)C1OC1OC(C)C(O)C(O)C1O (stereo partly drawn) [Compound B] | 5.4 | diminished | increasing | protected | protected | markedly reduced | eliminated | effectively reduced | 
CC1(C)CCC(CN2CCN(c3ccc(C(=O)NS(=O)(=O)c4ccc(NCC5CCOCC5)c([N+](=O)[O-])c4)c(Oc4cnc5[nH]ccc5c4)c3)CC2)=C(c2ccc(Cl)cc2)C1 [venetoclax] |  |  |  |  |  |  |  |  | 46

From patent publication US20240269157A1, “COMPOSITIONS AND METHODS FOR OVERCOMING MICROENVIRONMENT-MEDIATED RESISTANCE VIA E-SELECTIN TARGETING” (GLYCOMIMETICS, INC., priority 2021, published 2024)
